According to PMC9516332 (Frontiers in Oncology, 2022):

What was measured:
Assay in all cases: Kinase panel profiling at 1 µmol/L (MSA or IMAP), percentage inhibition
Assay type in all cases: biochemical
[1] = molecular target: panel of 255 wild-type kinases (Homo sapiens, UniProt Q9NYA1); details: kinase SPHK1; 1 µmol/L single concentration; read-out: %-inhibition at 1 µmol/L, SPHK1
[2] = molecular target: panel of 255 wild-type kinases (Homo sapiens, UniProt P51451); details: BLK kinase assay; 1 µmol/L single concentration; read-out: %-inhibition BLK
[3] = molecular target: T1, panel of 255 wild-type kinases (Homo sapiens, UniProt Q8TD19); details: NEK9; 1 µmol/L single concentration; read-out: %-inhibition, NEK9
T1 sequence (Q8TD19 1-979): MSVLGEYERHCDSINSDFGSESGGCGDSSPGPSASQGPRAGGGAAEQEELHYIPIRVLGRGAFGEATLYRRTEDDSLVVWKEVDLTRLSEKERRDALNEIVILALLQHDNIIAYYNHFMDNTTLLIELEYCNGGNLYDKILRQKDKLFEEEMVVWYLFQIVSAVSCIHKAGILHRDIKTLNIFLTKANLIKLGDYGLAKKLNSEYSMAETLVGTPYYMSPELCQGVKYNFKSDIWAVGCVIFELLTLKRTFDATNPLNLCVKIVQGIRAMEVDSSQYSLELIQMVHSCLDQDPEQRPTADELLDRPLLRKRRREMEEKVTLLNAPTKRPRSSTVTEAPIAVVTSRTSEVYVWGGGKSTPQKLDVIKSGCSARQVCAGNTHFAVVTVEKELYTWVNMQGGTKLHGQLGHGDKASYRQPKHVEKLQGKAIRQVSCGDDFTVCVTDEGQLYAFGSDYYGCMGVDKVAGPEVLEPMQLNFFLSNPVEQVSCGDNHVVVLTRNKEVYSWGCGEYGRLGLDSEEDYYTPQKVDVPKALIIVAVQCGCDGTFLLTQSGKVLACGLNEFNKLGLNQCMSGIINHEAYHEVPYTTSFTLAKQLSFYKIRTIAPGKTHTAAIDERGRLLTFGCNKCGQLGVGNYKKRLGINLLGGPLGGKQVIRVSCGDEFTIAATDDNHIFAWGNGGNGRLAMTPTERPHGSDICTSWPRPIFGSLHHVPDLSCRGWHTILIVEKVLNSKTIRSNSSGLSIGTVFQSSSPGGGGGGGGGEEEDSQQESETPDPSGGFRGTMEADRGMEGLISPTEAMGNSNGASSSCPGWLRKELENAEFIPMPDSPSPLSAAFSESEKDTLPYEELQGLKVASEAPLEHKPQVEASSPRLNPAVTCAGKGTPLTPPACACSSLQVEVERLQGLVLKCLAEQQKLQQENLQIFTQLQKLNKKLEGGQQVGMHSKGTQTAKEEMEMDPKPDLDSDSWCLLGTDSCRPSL

[4] = molecular target: panel of 255 wild-type kinases (Homo sapiens, UniProt Q9H4B4); details: kinase PLK3; 1 µmol/L single concentration; read-out: %-inhibition at 1 µmol/L, PLK3
[5] = molecular target: T2, panel of 255 wild-type kinases (Homo sapiens, UniProt O15264); details: p38δ; 1 µmol/L single concentration; read-out: %-inhibition, p38δ
T2 sequence (O15264 1-365): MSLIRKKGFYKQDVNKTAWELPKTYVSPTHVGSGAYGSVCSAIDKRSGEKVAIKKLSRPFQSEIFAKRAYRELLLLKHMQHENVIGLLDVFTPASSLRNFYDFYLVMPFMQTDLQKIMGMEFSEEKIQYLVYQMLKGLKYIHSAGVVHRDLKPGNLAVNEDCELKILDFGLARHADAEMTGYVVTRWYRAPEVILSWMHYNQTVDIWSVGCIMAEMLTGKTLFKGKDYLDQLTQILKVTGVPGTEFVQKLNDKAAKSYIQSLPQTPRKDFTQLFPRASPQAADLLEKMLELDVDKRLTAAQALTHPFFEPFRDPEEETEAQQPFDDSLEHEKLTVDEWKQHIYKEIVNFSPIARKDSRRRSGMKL

[6] = molecular target: panel of 255 wild-type kinases (Homo sapiens, UniProt Q16288); details: kinase TRKC; 1 µmol/L single concentration; read-out: %-inhibition at 1 µmol/L, TRKC
[7] = molecular target: panel of 255 wild-type kinases (Homo sapiens, UniProt P14616); details: kinase IRR; 1 µmol/L single concentration; read-out: %-inhibition at 1 µmol/L, IRR
[8] = molecular target: panel of 255 wild-type kinases (Homo sapiens, UniProt P08069); details: kinase IGF1R; 1 µmol/L single concentration; read-out: %-inhibition at 1 µmol/L, IGF1R
[9] = molecular target: T3, panel of 255 wild-type kinases (Homo sapiens, UniProt Q05513); details: kinase PKCζ; 1 µmol/L single concentration; read-out: %-inhibition at 1 µmol/L, PKCζ
T3 sequence (Q05513 1-592): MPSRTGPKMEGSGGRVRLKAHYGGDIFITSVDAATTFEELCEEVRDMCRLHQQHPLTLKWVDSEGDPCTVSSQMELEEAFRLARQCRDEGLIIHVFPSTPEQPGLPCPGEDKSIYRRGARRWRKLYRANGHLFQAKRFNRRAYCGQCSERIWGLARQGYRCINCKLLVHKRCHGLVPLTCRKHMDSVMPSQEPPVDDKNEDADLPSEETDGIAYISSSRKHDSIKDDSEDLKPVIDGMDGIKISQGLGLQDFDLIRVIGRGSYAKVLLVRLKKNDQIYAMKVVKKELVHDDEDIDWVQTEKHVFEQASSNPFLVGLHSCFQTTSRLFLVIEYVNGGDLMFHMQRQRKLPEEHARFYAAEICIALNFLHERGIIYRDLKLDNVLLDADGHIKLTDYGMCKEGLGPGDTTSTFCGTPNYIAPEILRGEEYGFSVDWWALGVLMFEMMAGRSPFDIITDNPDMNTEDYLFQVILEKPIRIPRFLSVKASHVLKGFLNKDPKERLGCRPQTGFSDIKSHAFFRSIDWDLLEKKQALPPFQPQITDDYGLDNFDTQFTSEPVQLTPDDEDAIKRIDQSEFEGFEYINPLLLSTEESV

[10] = molecular target: panel of 255 wild-type kinases (Homo sapiens, UniProt Q16654); details: kinase PDHK4; 1 µmol/L single concentration; read-out: %-inhibition at 1 µmol/L, PDHK4
[11] = molecular target: panel of 255 wild-type kinases (Homo sapiens, UniProt P41240); details: kinase CSK; 1 µmol/L single concentration; read-out: %-inhibition at 1 µmol/L, CSK

| Compound | inhibition at 1 µM [1] | inhibition at 1 µM [2] | inhibition at 1 µM [3] | inhibition at 1 µM [4] | inhibition at 1 µM [5] | inhibition at 1 µM [6] | inhibition at 1 µM [7] | inhibition at 1 µM [8] | inhibition at 1 µM [9] | inhibition at 1 µM [10] | inhibition at 1 µM [11] |
| --- | --- | --- | --- | --- | --- | --- | --- | --- | --- | --- | --- |
| O=C(Nc1cnn2ccc(N3CCC[C@@H]3c3cc(F)ccc3F)nc12)N1CC[C@H](O)C1 [larotrectinib] | -16% | -4% | -4.43% | -0.714% | -7% | 101% | 1.69% | 3.6% | 0.558% | 2% | -5% |
| CCN1C(=O)N(c2c(F)c(OC)cc(OC)c2F)Cc2cnc3[nH]c(CN4CCOCC4)cc3c21 [pemigatinib] | -13% | 27% | -1.57% | -1.19% | -6% | -0.168% | 8% | 7% | -0.0817% | -4% | 2.28% |
| FC(F)(F)c1ccc(CNc2ccc(Cc3c[nH]c4ncc(Cl)cc34)cn2)cn1 [pexidartinib] | -5% | 18% | 1.33% | 12% | 1.15% | 81% | 14% | 17% | 13% | 4.63% | 9% |
| CO[C@]1(C(=O)N[C@@H](C)c2ccc(-n3cc(F)cn3)nc2)CC[C@H](c2nc(C)cc(Nc3cc(C)[nH]n3)n2)CC1 [pralsetinib] | 0.199% | 84% | 16% | -0.12% | 0.0555% | 98% | 10% | 10% | -0.213% | 12% | 0.35% |
| CCn1c(=O)c(-c2cc(NC(=O)Nc3ccccc3)c(F)cc2Br)cc2cnc(NC)cc21 [ripretinib] | -19% | 26% | -2.78% | 4% | -0.186% | 54% | 4.5% | 3.34% | 15% | 4% | 50% |
| COc1ccc(CN2C3CC2CN(c2ccc(-c4cc(OCC(C)(C)O)cn5ncc(C#N)c45)cn2)C3)cn1 [selpercatinib] | -13% | 76% | -0.802% | -1.64% | -6.33% | 10% | 3% | 3% | -1% | -2.71% | 1.77% |
| Cn1cnc2c(F)c(Nc3ccc(Br)cc3Cl)c(C(=O)NOCCO)cc21 [selumetinib] | -8% | -6% | 0.727% | 0.774% | -4% | 10% | 2.15% | 5.57% | 1% | 0.425% | 0.0795% |
| Cc1cc(Nc2ncnc3ccc(NC4=NC(C)(C)CO4)cc23)ccc1Oc1ccn2ncnc2c1 [tucatinib] | -6.37% | 2.27% | -2% | 1.59% | -0.0555% | 2.53% | 3% | 2.31% | -1.11% | 7.57% | 6% |
